Measurements reported in article PMC6478789, “A chemical toolbox for the study of bromodomains and epigenetic signaling” (Nature Communications, 2019).

Tests used:
C2C12 myoblast cells = experiment: Gene-expression analysis (microarray); format: cell-based, mouse; settings: 12 h; 500 nM (JQ1, LP-99), 2 μM (GSK2801, BAZ2-ICR, BSP)
Method: Total RNA was extracted using the PureLink^TM RNA mini kit (Thermo Fisher Scientific, 12183018A) as per the manufacturer’s protocol.
RNA samples were processed for oligonucleotide microarray profiling utilizing the Affymetrix Clariom^TM S Assay HT mouse. Quality controls were carried out in R (v.3.5.1) and Bioconductor[71] (v.3.7) using the arrayQualityMetrics package (v.3.36.0) taking into account array intensity distributions, distance between arrays, and variance mean dependence. Principal component analysis was used to decide which arrays to process together. After quality control, arrays were corrected for background, normalized, and log2-transformed together using the rma function of the oligo package (v.1.44)[73] in R/Bioconductor. Probes with small variance across samples were filtered out using the genefilter (v.1.62) package, employing the nsFilter function and an interquartile range cut-off of 0.28 (or >log(1.2), determined by the midpoint of the shortest interval containing half of the data). This reduced the number of probes of the Clariom^TM S array from 29,129 to 14,538.
Differential expression analysis was conducted using the limma package (v.3.36.2)[74], employing a linear model followed by empirical Bayesian analysis to determine differential expression between not-treated and treated samples.

GCN5L2 = GCN5L2 (Homo sapiens, UniProt Q92830); experiment: Histone acetyltransferase (HAT) activity assay; format: biochemical; settings: read-out: HATs Activity (%);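 also: selectivity screen of BRD probe compounds across a panel of histone acetyltransferases, HAT activity in % with compound at 1 or 10 µM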
Sequence of GCN5L2 (Q92830 whole entry, species assumed): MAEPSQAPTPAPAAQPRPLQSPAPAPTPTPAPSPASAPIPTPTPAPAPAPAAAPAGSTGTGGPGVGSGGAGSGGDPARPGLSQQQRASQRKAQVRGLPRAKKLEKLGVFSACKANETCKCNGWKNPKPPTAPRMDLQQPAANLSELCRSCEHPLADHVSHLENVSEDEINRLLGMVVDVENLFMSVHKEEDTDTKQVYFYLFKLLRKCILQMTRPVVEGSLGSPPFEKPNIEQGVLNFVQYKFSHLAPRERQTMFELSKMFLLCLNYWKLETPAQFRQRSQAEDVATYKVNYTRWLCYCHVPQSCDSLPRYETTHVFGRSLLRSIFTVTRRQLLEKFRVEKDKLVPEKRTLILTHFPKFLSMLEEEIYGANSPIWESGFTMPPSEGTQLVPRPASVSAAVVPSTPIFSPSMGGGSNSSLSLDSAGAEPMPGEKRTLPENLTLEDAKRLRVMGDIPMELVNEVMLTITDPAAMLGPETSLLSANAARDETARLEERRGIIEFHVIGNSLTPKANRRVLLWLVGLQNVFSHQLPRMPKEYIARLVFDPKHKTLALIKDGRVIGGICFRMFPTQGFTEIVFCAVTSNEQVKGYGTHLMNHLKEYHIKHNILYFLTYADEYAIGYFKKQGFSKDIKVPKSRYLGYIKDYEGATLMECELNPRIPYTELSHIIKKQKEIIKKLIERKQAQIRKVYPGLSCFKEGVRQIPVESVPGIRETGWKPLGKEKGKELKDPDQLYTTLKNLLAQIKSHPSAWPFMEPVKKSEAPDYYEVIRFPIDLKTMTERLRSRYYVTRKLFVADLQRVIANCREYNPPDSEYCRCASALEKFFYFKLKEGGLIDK

HAT1 = molecular target: T1, HAT1 (Homo sapiens, UniProt O14929); experiment: Histone acetyltransferase (HAT) activity assay; format: biochemical; settings: read-out: HATs Activity (%);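 also: HAT selectivity screen of BRD probe compounds, enzyme activity in % measured with compound at 1 µM and 10 µM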
T1 sequence (O14929 1-419): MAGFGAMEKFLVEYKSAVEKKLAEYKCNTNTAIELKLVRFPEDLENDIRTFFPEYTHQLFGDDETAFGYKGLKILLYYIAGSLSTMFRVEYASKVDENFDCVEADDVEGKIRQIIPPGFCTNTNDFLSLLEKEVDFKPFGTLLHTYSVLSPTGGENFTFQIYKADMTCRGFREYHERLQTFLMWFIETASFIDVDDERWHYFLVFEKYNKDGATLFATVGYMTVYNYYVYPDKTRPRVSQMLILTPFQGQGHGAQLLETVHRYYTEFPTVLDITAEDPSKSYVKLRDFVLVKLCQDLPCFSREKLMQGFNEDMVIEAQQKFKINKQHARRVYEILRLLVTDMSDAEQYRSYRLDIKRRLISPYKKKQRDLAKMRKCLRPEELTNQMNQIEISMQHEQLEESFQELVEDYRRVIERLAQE

MYST3 = MYST3 (Homo sapiens, UniProt Q92794); experiment: Histone acetyltransferase (HAT) activity assay; format: biochemical; settings: read-out: HATs Activity (%);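 also: selectivity screen of bromodomain probe compounds across a panel of histone acetyltransferases, read out as enzyme activity in %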
Sequence of MYST3 (Q92794 whole entry, species assumed): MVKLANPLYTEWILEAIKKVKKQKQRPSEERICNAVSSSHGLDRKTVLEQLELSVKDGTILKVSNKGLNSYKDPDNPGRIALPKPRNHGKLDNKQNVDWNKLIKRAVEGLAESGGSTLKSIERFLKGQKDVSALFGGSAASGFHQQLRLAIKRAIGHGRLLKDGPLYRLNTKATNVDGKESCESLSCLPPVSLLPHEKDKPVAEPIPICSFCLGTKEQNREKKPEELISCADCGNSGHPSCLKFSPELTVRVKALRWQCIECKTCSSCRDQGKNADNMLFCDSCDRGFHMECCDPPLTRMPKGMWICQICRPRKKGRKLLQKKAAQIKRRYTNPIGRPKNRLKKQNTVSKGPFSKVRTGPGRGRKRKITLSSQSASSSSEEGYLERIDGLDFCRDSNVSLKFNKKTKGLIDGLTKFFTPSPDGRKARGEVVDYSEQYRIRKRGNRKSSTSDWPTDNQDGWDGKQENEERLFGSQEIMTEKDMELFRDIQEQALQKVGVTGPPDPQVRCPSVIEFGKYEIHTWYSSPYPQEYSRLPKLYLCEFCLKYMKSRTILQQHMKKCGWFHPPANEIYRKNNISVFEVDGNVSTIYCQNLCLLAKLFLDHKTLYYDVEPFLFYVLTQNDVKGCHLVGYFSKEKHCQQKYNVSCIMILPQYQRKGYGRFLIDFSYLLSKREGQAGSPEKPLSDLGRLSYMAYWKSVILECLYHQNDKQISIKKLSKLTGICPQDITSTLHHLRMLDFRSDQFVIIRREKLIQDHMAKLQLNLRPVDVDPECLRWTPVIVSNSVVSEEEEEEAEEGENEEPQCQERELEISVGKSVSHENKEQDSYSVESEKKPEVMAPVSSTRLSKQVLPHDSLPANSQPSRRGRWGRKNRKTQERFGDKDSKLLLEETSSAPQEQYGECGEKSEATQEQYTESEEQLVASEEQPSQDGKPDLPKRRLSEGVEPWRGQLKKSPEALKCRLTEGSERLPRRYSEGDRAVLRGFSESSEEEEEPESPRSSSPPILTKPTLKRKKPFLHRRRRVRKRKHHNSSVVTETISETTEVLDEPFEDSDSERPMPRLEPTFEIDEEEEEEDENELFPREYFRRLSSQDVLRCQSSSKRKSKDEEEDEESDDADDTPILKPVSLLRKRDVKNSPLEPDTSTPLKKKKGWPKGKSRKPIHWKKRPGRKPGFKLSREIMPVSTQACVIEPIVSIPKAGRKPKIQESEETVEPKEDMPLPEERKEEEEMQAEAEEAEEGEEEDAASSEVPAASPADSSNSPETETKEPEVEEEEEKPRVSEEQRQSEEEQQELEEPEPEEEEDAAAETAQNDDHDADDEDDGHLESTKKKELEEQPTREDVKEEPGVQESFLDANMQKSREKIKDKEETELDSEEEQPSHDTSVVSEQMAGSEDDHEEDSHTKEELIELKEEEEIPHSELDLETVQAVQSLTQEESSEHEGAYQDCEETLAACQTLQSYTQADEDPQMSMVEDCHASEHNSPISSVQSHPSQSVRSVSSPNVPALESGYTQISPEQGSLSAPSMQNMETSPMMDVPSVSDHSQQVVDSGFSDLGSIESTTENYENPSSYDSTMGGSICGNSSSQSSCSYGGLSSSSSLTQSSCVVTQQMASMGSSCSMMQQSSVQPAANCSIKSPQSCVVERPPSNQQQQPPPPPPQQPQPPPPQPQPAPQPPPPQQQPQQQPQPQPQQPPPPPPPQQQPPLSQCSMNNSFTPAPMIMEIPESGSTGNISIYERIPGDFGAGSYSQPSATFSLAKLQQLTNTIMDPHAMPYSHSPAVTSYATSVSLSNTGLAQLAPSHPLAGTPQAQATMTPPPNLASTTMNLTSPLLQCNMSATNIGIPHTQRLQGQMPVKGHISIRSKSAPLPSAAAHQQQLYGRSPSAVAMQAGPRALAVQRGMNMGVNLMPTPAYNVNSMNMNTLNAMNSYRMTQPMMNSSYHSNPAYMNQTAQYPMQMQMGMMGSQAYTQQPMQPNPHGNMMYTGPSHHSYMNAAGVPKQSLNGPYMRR

three TNBC lines = experiment: Combinatorial screen of BRD inhibitors with or without BAY-876 (confluency); format: cell-based, human; settings: 3 μM probe + 3 μM BAY-876
Method: Fig. 6 BRD inhibitors leverage metabolic adaptations induced by glucose transporter I (GLUT1) inhibition in TNBC. a BRD inhibitor screening across ten TNBC cell lines. Cells were treated with indicated BRD inhibitors at 3 μM for 7 days. Confluency was measured using an IncuCyte ZOOM live cell imaging device. Data shown are mean ± s.d. of n = 4 independent cell culture grown and treated cells. A two-sided Student’s t test was used to derive the p-values. b SLC2A1 gene expression in the The Cancer Genome Atlas (TCGA) breast datasets. The cohorts were divided into TNBCs (red) and non-TNBCs (blue) according to PAM50 classification. Gene expression is reported as median-centered expression log2 values. The number of patients (n) per group is indicated. P-values were determined using a Wilcoxon's rank-sum test. c Glucose uptake in MDA-MB-436 cells in response to BAY-876 treatment relative to vehicle. MDA-MB-436 cells were treated with dimethyl sulfoxide (DMSO) or 3 µM BAY-876 for 5 days. Graph indicates mean, error bars denote s.d. from three independent assays and p-value was computed using the Benjamini-Hochberg t test; ***p < 0.001. d Effects of BAY-876 treatment on the intracellular acetyl-CoA level. Graph indicates mean, error bars denote s.d. from three independent assays and p-value was computed using the Benjamini-Hochberg t test; ***p < 0.001. e Effects of BAY-876 treatment on intracellular NAD^+/NADH level. Graph indicates the mean, error bars denote s.d. from three independent assays and p-value computed using the Benjamini-Hochberg t test; **p < 0.01. f Immunoblot analysis of H3 and H4 acetylation in MDA-MB-436 cells before and after BAY-876 treatment. P-value computed using the Benjamini-Hochberg t test; ***p < 0.001. g Cell growth effects of BAY-876 treatment on three representative cell lines. n.s. not significant. h Combinatorial screening of BRD inhibitors with or without 3 μM BAY-876 across ten TNBC cell lines. Cell confluency was obtained from the endpoint Incucyte scanning. (Left) Heatmap of the combinatorial screening results; (Right) Cell confluency after treatment with three potential BRDi candidates at 3 μM in the presence or absence of 3 μM BAY-876 in three representative cell lines. Graph indicates mean, error bars denote s.d. from three independent assays and p-values were computed using the Benjamini-Hochberg t test; **p < 0.01; ***p < 0.001. Raw data images are available in Supplementary Fig. 4
TNBC cell lines were seeded in sterile, transparent 384-well plates at 500 cells per well in 50 µl media. Chemical probes were delivered in dimethyl sulfoxide (DMSO). Cell confluency at 7 days was evaluated using an Incucyte ZOOM live cell imaging device (Essen Bioscence) and analyzed with the Incucyte ZOOM (2016A) software based on phase contrast image.

[1] = test system: BT-549 and MDA-MB436 cell lines; experiment: JQ1 dose-response with or without BAY-876; format: cell-based, human; settings: with or without 3 μM BAY-876, 7 days
Method: and error bars denote standard deviation from three independent assays. p value computed using a one-way ANOVA test; ****** p<0.001. e) The colony formation of indicated cells with 3μM indicated chemical probes treatment for 14 days. f) MDA-MB436 cells were treated with 3μM indicated chemical probes for 5 days. Cell apoptotic activity was quantified by the fluorescent caspase 3/7 active objects. Graph indicate mean and error bars denote standard deviation from four independent assays. p value computed using one-way ANOVA t test; ****
Graph indicate mean and error bars denote standard deviation from four independent assays. p value computed using a two- stage step-up Benjamini t test i) Dose dependent
Graph indicate mean and error bars denote standard deviation from four independent assay s. p value computed using a two - stage step -up Benjamini t test j) Immunoblot based quantification of H3K14ac abundance using total H3 as a control in MDA-MB-436 cells following control or 3 μM of the indicated chemical probes during a 5-day treatment. Graph indicate mean and error bars denote standard deviation from three independent assays. p value computed using a two-stage step-up Benjamini t test; **p<0.01; *** p<0.001. k) Immunoblot based quantification of H3K14ac abundance using total […]

EP300 = EP300 (Homo sapiens, UniProt Q09472); experiment: Histone acetyltransferase (HAT) activity assay; format: biochemical; settings: read-out: HATs Activity (%);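 also: selectivity screen of bromodomain probe compounds against histone acetyltransferases, with enzyme activity given in percent for compounds tested at 1 and 10 µM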
MYST1 = molecular target: T2, MYST1 (Homo sapiens, UniProt Q9H7Z6); experiment: Histone acetyltransferase (HAT) activity assay; format: biochemical; settings: read-out: HATs Activity (%);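 also: selectivity screen across a panel of histone acetyltransferases, with compounds tested at 1 and 10 µM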
T2 sequence (Q9H7Z6 1-458): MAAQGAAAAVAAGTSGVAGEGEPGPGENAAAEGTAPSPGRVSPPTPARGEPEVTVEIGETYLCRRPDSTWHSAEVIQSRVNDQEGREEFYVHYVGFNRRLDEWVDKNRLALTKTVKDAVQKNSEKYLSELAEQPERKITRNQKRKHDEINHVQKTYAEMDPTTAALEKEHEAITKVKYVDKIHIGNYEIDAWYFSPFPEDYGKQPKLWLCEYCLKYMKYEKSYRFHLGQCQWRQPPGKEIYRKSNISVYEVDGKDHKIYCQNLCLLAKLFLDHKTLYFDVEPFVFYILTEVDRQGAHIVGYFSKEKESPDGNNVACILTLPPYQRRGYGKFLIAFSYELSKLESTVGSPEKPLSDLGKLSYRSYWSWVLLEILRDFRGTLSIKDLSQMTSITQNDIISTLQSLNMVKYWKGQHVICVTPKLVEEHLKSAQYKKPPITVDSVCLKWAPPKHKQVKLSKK

ten TNBC cell lines = experiment: High-throughput screening of bromodomain inhibitors in TNBC panel (confluency); format: cell-based, human; settings: 3 μM, 7 days
Method: Fig. 6 BRD inhibitors leverage metabolic adaptations induced by glucose transporter I (GLUT1) inhibition in TNBC. a BRD inhibitor screening across ten TNBC cell lines. Cells were treated with indicated BRD inhibitors at 3 μM for 7 days. Confluency was measured using an IncuCyte ZOOM live cell imaging device. Data shown are mean ± s.d. of n = 4 independent cell culture grown and treated cells. A two-sided Student’s t test was used to derive the p-values. b SLC2A1 gene expression in the The Cancer Genome Atlas (TCGA) breast datasets. The cohorts were divided into TNBCs (red) and non-TNBCs (blue) according to PAM50 classification. Gene expression is reported as median-centered expression log2 values. The number of patients (n) per group is indicated. P-values were determined using a Wilcoxon's rank-sum test. c Glucose uptake in MDA-MB-436 cells in response to BAY-876 treatment relative to vehicle. MDA-MB-436 cells were treated with dimethyl sulfoxide (DMSO) or 3 µM BAY-876 for 5 days. […]
TNBC cell lines were seeded in sterile, transparent 384-well plates at 500 cells per well in 50 µl media. […] Cell confluency at 7 days was evaluated using an Incucyte ZOOM live cell imaging device (Essen Bioscence) and analyzed with the Incucyte ZOOM (2016A) software based on phase contrast image.

## Cc1sc2c(c1C)C(c1ccc(Cl)cc1)=NC(CC(=O)OC(C)(C)C)c1nnc(C)n1-2 (centres unmarked) [JQ1]
C2C12 myoblast cells
  changes in gene-expression levels: significant changes in gene-expression levels
GCN5L2
  activity at 1 µM: 104%
  activity at 10 µM: 98%
HAT1
  activity at 1 µM: 98%
  activity at 10 µM: 103%
MYST3
  activity at 1 µM: 108%
  activity at 10 µM: 100%
Three TNBC lines
  combination effect with BAY-876 across the three cell lines: efficacy in only one of the three tested TNBC lines
[1]
  synergy with BAY-876: no significant synergistic effect
EP300
  activity at 1 µM: 99%
  activity at 10 µM: 102%
MYST1
  activity at 1 µM: 99%
  activity at 10 µM: 95%
Ten TNBC cell lines
  anti-proliferative effect (confluency): strong anti-proliferative effects
